The test system of one assay is NCI/ADR-RES. Kind of assay: Cytotoxicity against human NCI/ADR-RES cells assessed as cell viability at 10 uM incubated for 48 hrs by sulforhodamine B assay relative to control. Format: functional. To be noted: read-out: Activity. A general note: In SRB staining, fixed cells bind dye roughly in proportion to their protein.
The test system of another assay is PC-3. The assay can be described thus: Cytotoxicity against human PC-3 cells assessed as cell viability at 10 uM incubated for 48 hrs by sulforhodamine B assay relative to control. It counts as functional. To be noted: read-out: Activity.
For a further assay, the system named is Hs-578T. Kind of assay: Cytotoxicity against human HS-578T cells assessed as cell viability at 10 uM incubated for 48 hrs by sulforhodamine B assay relative to control. Format: functional. To be noted: read-out: Activity.
The next assay relates to OVCAR-4. The assay can be described thus: Cytotoxicity against human OVCAR-4 cells assessed as cell viability at 10 uM incubated for 48 hrs by sulforhodamine B assay relative to control. The note with it: read-out: Activity. Format: functional.
A further assay relates to HL-60(TB). The assay can be described thus: Cytotoxicity against human HL-60(TB) cells assessed as cell viability at 10 uM incubated for 48 hrs by sulforhodamine B assay relative to control. Format: functional. The note with it: read-out: Activity.
Another assay has as its system RXF 393. The assay can be described thus: Cytotoxicity against human RXF 393 cells assessed as cell viability at 10 uM incubated for 48 hrs by sulforhodamine B assay relative to control. It counts as functional. The note with it: read-out: Activity.
The subject of another assay is M14. The assay can be described thus: Cytotoxicity against human M14 cells assessed as cell viability at 10 uM incubated for 48 hrs by sulforhodamine B assay relative to control. To be noted: read-out: Activity. It counts as functional.
In a further assay the test system is MDA-MB-435. The assay can be described thus: Cytotoxicity against human MDA-MB-435 cells assessed as cell viability at 10 uM incubated for 48 hrs by sulforhodamine B assay relative to control. Format: functional. The note with it: read-out: Activity.
The next assay concerns A-375. Kind of assay: Cytotoxicity against human A-375 cells assessed as reduction in cell viability by MTT assay. Format: functional, cell-based. Background: Formazan colour is commonly taken as a measure of viable cells.
Another assay relates to BT-549. Kind of assay: Cytotoxicity against human BT-549 cells assessed as cell viability at 10 uM incubated for 48 hrs by sulforhodamine B assay relative to control. Format: functional. The note with it: read-out: Activity.
The subject of the next assay is U-251. Kind of assay: Cytotoxicity against human U-251 cells assessed as cell viability at 10 uM incubated for 48 hrs by sulforhodamine B assay relative to control. Format: functional. The note with it: read-out: Activity.
Assay [1] has as its target RAF proto-oncogene serine/threonine-protein kinase (Homo sapiens, UniProt P04049). The assay can be described thus: Inhibition of human CRAF using MEK1 as substrate by [gamma-33P]-ATP assay.
The subject of a further assay is SK-MEL-28. Kind of assay: Cytotoxicity against human SK-MEL-28 cells assessed as reduction in cell viability by MTT assay. Format: functional, cell-based.
In assay [2] the target is Serine/threonine-protein kinase B-raf (Homo sapiens, UniProt P15056). The assay can be described thus: Inhibition of human BRAF using MEK1 as substrate by […] assay.
The next assay deals with 786-0. Kind of assay: Cytotoxicity against human 786-0 cells assessed as cell viability at 10 uM incubated for 48 hrs by sulforhodamine B assay relative to control. The note with it: read-out: Activity. Format: functional.
The target of assay [3] is Serine/threonine-protein kinase B-raf (Homo sapiens, UniProt P15056, V600E). Kind of assay: Inhibition of human BRAF V600E mutant using MEK1 as substrate by […] assay.
A further assay concerns L132. Kind of assay: Cytotoxicity against human L132 cells assessed as reduction in cell viability by MTT assay. It counts as cell-based.
The test system of another assay is OVCAR-8. Kind of assay: Cytotoxicity against human OVCAR-8 cells assessed as cell viability at 10 uM incubated for 48 hrs by sulforhodamine B assay relative to control. It counts as functional. To be noted: read-out: Activity.
A further assay relates to SF-539. The assay can be described thus: Cytotoxicity against human SF-539 cells assessed as cell viability at 10 uM incubated for 48 hrs by sulforhodamine B assay relative to control. The note with it: read-out: Activity. Format: functional.
Another assay relates to OVCAR-5. The assay can be described thus: Cytotoxicity against human OVCAR-5 cells assessed as cell viability at 10 uM incubated for 48 hrs by sulforhodamine B assay relative to control. It counts as functional. The note with it: read-out: Activity.
The test system of the next assay is OVCAR-3. Kind of assay: Cytotoxicity against human OVCAR-3 cells assessed as cell viability at 10 uM incubated for 48 hrs by sulforhodamine B assay relative to control. Format: functional. To be noted: read-out: Activity.
The test system of a further assay is TK-10. The assay can be described thus: Cytotoxicity against human TK-10 cells assessed as cell viability at 10 uM incubated for 48 hrs by sulforhodamine B assay relative to control. It counts as functional. The note with it: read-out: Activity.
The next assay deals with Malme-3M. Kind of assay: Cytotoxicity against human Malme-3M cells assessed as cell viability at 10 uM incubated for 48 hrs by sulforhodamine B assay relative to control. To be noted: read-out: Activity. It counts as functional.
For a further assay, the system named is SF-295. Kind of assay: Cytotoxicity against human SF-295 cells assessed as cell viability at 10 uM incubated for 48 hrs by sulforhodamine B assay relative to control. Format: functional. To be noted: read-out: Activity.

Sequence of Serine/threonine-protein kinase B-raf (Homo sapiens, UniProt P15056, V600E) (P15056 2-766 V600E limits assumed): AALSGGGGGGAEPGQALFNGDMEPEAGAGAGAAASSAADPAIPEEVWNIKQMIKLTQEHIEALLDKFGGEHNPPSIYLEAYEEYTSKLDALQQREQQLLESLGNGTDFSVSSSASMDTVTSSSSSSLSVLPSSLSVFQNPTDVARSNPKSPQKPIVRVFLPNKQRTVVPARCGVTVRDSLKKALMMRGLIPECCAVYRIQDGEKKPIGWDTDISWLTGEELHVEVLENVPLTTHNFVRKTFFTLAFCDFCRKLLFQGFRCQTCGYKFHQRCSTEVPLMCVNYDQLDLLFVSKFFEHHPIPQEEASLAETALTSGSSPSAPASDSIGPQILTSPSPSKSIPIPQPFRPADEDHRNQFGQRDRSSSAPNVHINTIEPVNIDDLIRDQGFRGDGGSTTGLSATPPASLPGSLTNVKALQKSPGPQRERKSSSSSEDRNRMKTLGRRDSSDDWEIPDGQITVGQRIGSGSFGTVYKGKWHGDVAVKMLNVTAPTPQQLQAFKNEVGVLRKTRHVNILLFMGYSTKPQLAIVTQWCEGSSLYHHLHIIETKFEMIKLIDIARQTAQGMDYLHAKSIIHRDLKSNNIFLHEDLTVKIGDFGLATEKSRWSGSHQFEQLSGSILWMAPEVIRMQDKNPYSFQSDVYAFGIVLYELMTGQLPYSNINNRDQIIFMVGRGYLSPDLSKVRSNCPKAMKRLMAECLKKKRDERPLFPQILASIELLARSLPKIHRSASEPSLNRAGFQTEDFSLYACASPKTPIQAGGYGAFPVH
Sequence of RAF proto-oncogene serine/threonine-protein kinase (P04049 whole entry): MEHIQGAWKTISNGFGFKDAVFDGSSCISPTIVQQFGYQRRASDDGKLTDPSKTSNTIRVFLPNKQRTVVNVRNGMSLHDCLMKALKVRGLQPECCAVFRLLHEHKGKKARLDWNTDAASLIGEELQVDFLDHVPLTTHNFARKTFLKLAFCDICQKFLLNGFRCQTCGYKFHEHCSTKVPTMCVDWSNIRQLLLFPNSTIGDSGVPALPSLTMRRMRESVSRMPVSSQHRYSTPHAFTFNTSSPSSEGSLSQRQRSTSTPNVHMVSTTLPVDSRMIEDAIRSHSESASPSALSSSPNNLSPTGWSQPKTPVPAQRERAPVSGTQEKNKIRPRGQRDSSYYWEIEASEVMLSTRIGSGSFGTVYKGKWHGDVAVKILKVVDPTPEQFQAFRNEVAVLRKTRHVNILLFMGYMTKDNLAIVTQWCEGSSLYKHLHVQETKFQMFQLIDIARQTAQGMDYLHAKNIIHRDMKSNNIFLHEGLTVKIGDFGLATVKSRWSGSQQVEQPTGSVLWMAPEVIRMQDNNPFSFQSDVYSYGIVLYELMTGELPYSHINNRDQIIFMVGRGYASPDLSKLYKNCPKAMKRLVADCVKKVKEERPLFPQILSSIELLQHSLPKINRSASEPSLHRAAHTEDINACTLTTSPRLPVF
Sequence of Serine/threonine-protein kinase B-raf (Homo sapiens, UniProt P15056) (P15056 whole entry): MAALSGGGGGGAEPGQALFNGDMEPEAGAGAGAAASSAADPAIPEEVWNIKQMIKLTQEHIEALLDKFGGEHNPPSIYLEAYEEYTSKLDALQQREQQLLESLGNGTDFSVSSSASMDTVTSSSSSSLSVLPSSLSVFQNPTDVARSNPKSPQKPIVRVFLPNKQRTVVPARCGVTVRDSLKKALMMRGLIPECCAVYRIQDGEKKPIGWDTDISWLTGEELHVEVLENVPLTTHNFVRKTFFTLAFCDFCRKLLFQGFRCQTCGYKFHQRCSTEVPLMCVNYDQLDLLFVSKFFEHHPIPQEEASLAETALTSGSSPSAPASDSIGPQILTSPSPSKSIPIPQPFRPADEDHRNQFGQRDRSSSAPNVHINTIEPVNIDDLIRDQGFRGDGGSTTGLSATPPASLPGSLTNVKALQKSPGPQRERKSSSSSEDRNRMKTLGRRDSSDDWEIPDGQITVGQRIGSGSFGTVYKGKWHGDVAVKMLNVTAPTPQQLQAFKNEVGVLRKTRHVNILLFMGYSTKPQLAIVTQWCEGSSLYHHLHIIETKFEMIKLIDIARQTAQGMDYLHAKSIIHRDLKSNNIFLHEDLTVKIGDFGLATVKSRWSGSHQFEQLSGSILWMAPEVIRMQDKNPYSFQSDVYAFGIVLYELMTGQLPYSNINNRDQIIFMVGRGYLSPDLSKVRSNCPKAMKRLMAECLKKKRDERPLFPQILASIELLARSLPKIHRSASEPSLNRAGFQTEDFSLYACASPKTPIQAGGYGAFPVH

As a reminder, the IC50 is the point on the concentration scale where inhibition reaches its midpoint. With `O=S(=O)(NCCCNc1nccc(-c2c(-c3cccc(F)c3)nc3sccn23)n1)c1ccc(C(F)(F)F)cc1`, the viability at 10 µM in the assay with NCI/ADR-RES stood at 87.2%; in the assay with PC-3, 67.8%; with Hs-578T, 83.5%; with OVCAR-4, 93%; with HL-60(TB) it was 127%; in the assay with RXF 393, 94.7%. Besides, the viability at 10 µM in the assay with M14 amounted to 92.4%; in the assay with MDA-MB-435, 74.2%; in the assay with BT-549 it was 99.8%; with U-251, 95.1%; in the assay with 786-0, 80.1%; in the assay on OVCAR-8, 75.7%. The viability at 10 µM with SF-539 is 110%; in the assay on OVCAR-5, 129%; in the assay on OVCAR-3, 92.8%; with TK-10, 107%; with Malme-3M it was 127%; with SF-295 it was 104%. Moreover, the IC50 is 4090 nM with A-375; 40 nM in assay [1]; 11600 nM in the assay on SK-MEL-28; 63 nM in assay [2]; 26 nM in assay [3]; 320000 nM in the assay on L132.

For the origin of these results see ChEMBL document CHEMBL4665642, “Anticancer profile of newly synthesized BRAF inhibitors possess 5-(pyrimidin-4-yl)imidazo[2,1-b]thiazole scaffold” (Bioorg Med Chem, 2019).
